Laboratory results: patent publication US4948782A, “A method of promoting the growth of domestic animals with erythromycin derivative containing composition” (Kitasato Kenkyusho, priority 1987, dated 1990)

Key:
Assay type in all cases: cell-based
[1] = test system: Klebsiella pneumoniae ATCC 10031; experiment: MIC, Klebsiella pneumoniae ATCC 10031 (KP); conditions: Klebsiella pneumoniae ATCC 10031; for MIC: ATCC10031, read-out: MIC KP
Bacillus subtilis = experiment: MIC, Bacillus subtilis (BS); conditions: for MIC: read-out: MIC BS
[2] = test system: Staphylococcus aureus FDA 209P; experiment: MIC, Staphylococcus aureus FDA 209P (SA(2)); conditions: Staphylococcus aureus, FDA209P, Staphylococcus aureus FDA 209P; read-out: MIC SA (2)
Source text: (§1) The minimum inhibitory concentrations (MIC: mcg/ml) of the erythromycin derivatives of the present invention and the control erythromycin derivative (*) as the known growth promoting agent on typical test bacteria are shown in the following Tables 1 to 5.
SA(2): Staphylococcus aureus FDA 209P

Bacillus cereus IFO 3001 = experiment: MIC, Bacillus cereus IFO 3001 (BC); conditions: for MIC: Bacillus cereus, IFO3001, Bacillus cereus IFO 3001, read-out: MIC BC
Escherichia coli NIHJ = experiment: MIC, Escherichia coli NIHJ (EC)
[3] = test system: Staphylococcus aureus ATCC 6538P; experiment: MIC, Staphylococcus aureus ATCC 6538P (SA(1)); conditions: Staphylococcus aureus ATCC 6538P; for MIC: Staphylococcus aureus, ATCC6538P, read-out: MIC SA (1)
Source text: as §1
SA(1): Staphylococcus aureus ATCC 6538P

SMILES | MIC [1] | MIC (Bacillus subtilis) | MIC [2] | MIC (Bacillus cereus IFO 3001) | MIC (Escherichia coli NIHJ) | MIC [3] | MIC KP [1] | MIC BS (Bacillus subtilis) | MIC BC (Bacillus cereus IFO 3001; Bacillus cereus IFO 3001) | MIC EC (Escherichia coli NIHJ) | MIC SA (1) [3]
CCCCN(C)C1CC(C)OC(OC2C(C)C(OC3CC(C)(OC)C(O)C(C)O3)C(C)C(=O)OC(CC)C(C)(O)C(O)C(C)C3=C(C)CC2(C)O3)C1O (stereo not shown) [Compound 11] | > 100 µg/mL | > 100 µg/mL | > 100 µg/mL | > 100 µg/mL | > 100 µg/mL | > 100 µg/mL | – | – | – | – | –
CCC1OC(=O)C(C)C(OC2CC(C)(OC)C(O)C(C)O2)C(C)C(OC2OC(C)CC([N+](C)(CC)CC)C2O)C2(C)CC(C)=C(O2)C(C)C(O)C1(C)O (stereo not shown) [Compound 12] | > 100 µg/mL | > 100 µg/mL | > 100 µg/mL | > 100 µg/mL | > 100 µg/mL | > 100 µg/mL | – | – | – | – | –
CCC1OC(=O)C(C)C(OC2CC(C)(OC)C(O)C(C)O2)C(C)C(OC2OC(C)CC(N3CCCC3)C2O)C2(C)CC(C)=C(O2)C(C)C(O)C1(C)O (stereo not shown) [Compound 13] | > 100 µg/mL | > 100 µg/mL | > 100 µg/mL | > 100 µg/mL | > 100 µg/mL | > 100 µg/mL | – | – | – | – | –
CCC1OC(=O)C(C)C(OC2CC(C)(OC)C(O)C(C)O2)C(C)C(OC2OC(C)CC([N+]3(C)CCCC3)C2O)C2(C)CC(C)=C(O2)C(C)C(O)C1(C)O (stereo not shown) [Compound 14] | > 100 µg/mL | > 100 µg/mL | > 100 µg/mL | > 100 µg/mL | > 100 µg/mL | > 100 µg/mL | – | – | – | – | –
CCC1OC(=O)C(C)C(OC2CC(C)(OC)C(O)C(C)O2)C(C)C(OC2OC(C)CC([N+](C)(C)CCO)C2O)C2(C)CC(C)=C(O2)C(C)C(O)C1(C)O (stereo not shown) [Compound 15] | > 100 µg/mL | > 100 µg/mL | > 100 µg/mL | > 100 µg/mL | > 100 µg/mL | > 100 µg/mL | – | – | – | – | –
C=CC[N+](C)(C)C1CC(C)OC(OC2C(C)C(OC3CC(C)(OC)C(O)C(C)O3)C(C)C(=O)OC(CC)C(C)(O)C(O)C(C)C3=C(C)CC2(C)O3)C1O (stereo not shown) [Compound 16] | > 100 µg/mL | > 100 µg/mL | > 100 µg/mL | > 100 µg/mL | > 100 µg/mL | 100 µg/mL | – | – | – | – | –
CCC1OC(=O)C(C)C(OC2CC(C)(OC)C(O)C(C)O2)C(C)C(OC2OC(C)CC([N+](C)(C)Cc3ccccc3)C2O)C2(C)CC(C)=C(O2)C(C)C(O)C1(C)O (stereo not shown) [Compound 17] | > 100 µg/mL | 50 µg/mL | 100 µg/mL | 100 µg/mL | > 100 µg/mL | 100 µg/mL | – | – | – | – | –
CCC1OC(=O)C(C)C(OC2CC(C)(OC)C(O)C(C)O2)C(C)C(OC2OC(C)CC([N+](C)(C)CC)C2O)C2(C)CC(C)=C(O2)C(C)C(OS(C)(=O)=O)C1(C)O (stereo not shown) [Compound 18] | > 100 µg/mL | > 100 µg/mL | > 100 µg/mL | > 100 µg/mL | > 100 µg/mL | > 100 µg/mL | – | – | – | – | –
CCC1OC(=O)C(C)C(OC2CC(C)(OC)C(O)C(C)O2)C(C)C(OC2OC(C)CC([N+](C)(C)CC)C2O)C2(C)CC(C)=C(O2)C(C)C(O)C1(C)O (stereo not shown) [Compound 19] | – | – | – | – | – | – | > 100 µg/mL | > 100 µg/mL | > 100 µg/mL | > 100 µg/mL | > 100 µg/mL
CCC1OC(=O)C(C)C(OC2CC(C)(OC)C(O)C(C)O2)C(C)C(OC2OC(C)CC(N(CC)CC)C2O)C2(C)CC(C)=C(O2)C(C)C(O)C1(C)O (stereo not shown) [Compound 20] | > 100 µg/mL | > 100 µg/mL | > 100 µg/mL | > 100 µg/mL | > 100 µg/mL | > 100 µg/mL | – | – | – | – | –
CCNC1CC(C)OC(OC2C(C)C(OC3CC(C)(OC)C(O)C(C)O3)C(C)C(=O)OC(CC)C(C)(O)C(O)C(C)C3=C(C)CC2(C)O3)C1O (stereo not shown) [Compound 21] | > 100 µg/mL | > 100 µg/mL | > 100 µg/mL | > 100 µg/mL | > 100 µg/mL | > 100 µg/mL | – | – | – | – | –
CCC1OC(=O)C(C)C(OC2CC(C)(OC)C(O)C(C)O2)C(C)C(OC2OC(C)CC(N3CCCCC3)C2O)C2(C)CC(C)=C(O2)C(C)C(O)C1(C)O (stereo not shown) [Compound 22] | > 100 µg/mL | > 100 µg/mL | > 100 µg/mL | > 100 µg/mL | > 100 µg/mL | > 100 µg/mL | – | – | – | – | –
CCC1OC(=O)C(C)C(OC2CC(C)(OC)C(O)C(C)O2)C(C)C(OC2OC(C)CC([N+](CC)(CC)CC)C2O)C2(C)CC(C)=C(O2)C(C)C(O)C1(C)O (stereo not shown) [Compound 23] | > 100 µg/mL | > 100 µg/mL | > 100 µg/mL | > 100 µg/mL | > 100 µg/mL | > 100 µg/mL | – | – | – | – | –
CCC1OC(=O)C(C)C(OC2CC(C)(OC)C(O)C(C)O2)C(C)C(OC2OC(C)CC([N+](C)(C)CC3CC3)C2O)C2(C)CC(C)=C(O2)C(C)C(O)C1(C)O (stereo not shown) [Compound 50] | > 100 µg/mL | > 100 µg/mL | > 100 µg/mL | – | > 100 µg/mL | 100 µg/mL | – | – | – | – | –
